Paper PMC5225183, “Fingerprinting of neurotoxic compounds using a mouse embryonic stem cell dual luminescence reporter assay” (Archives of Toxicology, 2016)
Like-named read-outs stand apart in the source and are kept apart here. Marks after values point to notes of the source that are not given here.

Columns and labels:
[1] = tested on: EF1α promoter
Summary of the method: (§1)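 Mouse CGR8 ESCs carrying Tα1-firefly and EF1α-Renilla luciferase reporters, treated either undifferentiated (48 h exposure after 24 h plating) or as MS5-induced neurons (exposure day 6 to day 8). Dual-luciferase luminescence expressed as % promoter activity versus DMSO control wells; 5 µM methylmercury as positive control.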

[2] = tested on: Tubulin α1 (Tα1) promoter
Summary of the method: as §1

[3] = tested on: Tubulin α1 (Tα1) promoter; test: cells
Summary of the method: as §1

[4] = cited from earlier work; for Concentration in humans (increase in blood mercury levels after vaccination): ref Pichichero et al. ([2008])
[5] = tested on: undifferentiated pluripotent stem cells (ESCs); test: Dual luminescence reporter test system, undifferentiated ESCs (readout not separated); format: cell-based, mouse; conditions: non-cytotoxic concentrations
Source text: Fig. 1 Synopsis of experimental protocols. The impact of compounds on neural promoter activity (FLuc, Firefly Luciferase under the control of the Tα1 promoter), general promoter activity (RLuc, Renilla Luciferase under the control of the EF1α promoter), and amount of DNA (PI, propidium iodide fluorescence in cell homogenates) was investigated in undifferentiated mouse embryonic pluripotent stem cells (ESCs) and on ESC-derived neurons. Arrows indicate the time of measurement of the three parameters. a Protocol for testing compounds effects on ESCs. CGR8-2Luc cells were plated on gelatin-coated 96-well plates in maintenance medium (BHK21 medium containing 10 % FCS, L-glutamine, NEAA, P/S, and LIF). Twenty-four hours later, cells were exposed to compounds for forty-eight hours. b Protocol for testing compounds on ESC-derived neurons. CGR8-2Luc cells were co-cultured with MS5 cells to induce neural differentiation in DMEM medium containing 15 % KO-serum, NEAA, β-mercaptoethanol, and P/S. On day 5, cells were detached and seeded on polyornithine-coated plates in DMEM medium containing N2 supplement, bFGF, and P/S; compound exposure was from day 6 to day 8
To test compounds on ESC-derived neurons, neuronal differentiation was carried out as previously described (Suter et al. [2009]; Xu et al. [2014]). Briefly, CGR8-2Luc cells were seeded on irradiated bone marrow-derived stromal MS5 cells and cultivated for 4 days in DMEM medium containing 15 % Knock-out™ Serum Replacement, non-essential amino acids, beta-mercaptoethanol, and penicillin/streptomycin. At day 5, cells were then re-plated (3 × 10^5 cells/cm^2) on polyornithine-coated 96-well plates in N2 medium containing DMEM, N2 supplement, penicillin/streptomycin, and 10 ng/ml basic human fibroblast growth factor (bFGF) (Invitrogen). […] To assess toxicity of compounds on undifferentiated pluripotent stem cells (ESCs), CGR8-2Luc cells were plated at 45,000 cells/cm^2 on 0.1 % gelatin-coated dishes in BHK21 medium, supplemented with 10 % fetal calf serum, L-glutamine, non-essential amino acids, penicillin/streptomycin, and leukemia inhibitory factor (LIF). After 24 h, compounds were added and incubated for 48 h, before luciferase expression and PI fluorescence were analyzed. In all experiments, methylmercury was used as a positive control at a concentration of 5 µM.
Luciferase activities were measured with a Dual-Luciferase™ Reporter system kit. CGR8-2Luc ES cells were lysed in 96-well plates according to the manufacturer’s instructions. Luminescence measurements were performed on a Fluostar Optima reader. Luminescence counts were expressed as percentage of promoter activity normalized by comparison with the control wells treated by DMSO. […] parameters were measured in homogenates of ESCs and in ESC-derived neurons: (1) FLuc, reflecting the activity of early neural promoter Tα1. FLuc increases during neuronal differentiation. Many neurotoxic compounds may affect FLuc expression, either through impact on neuronal differentiation, through changes of neuronal gene expression, or through killing of neurons.
After measurement of luciferase activity, DNA quantity was determined by PI assay, as previously described (Xu et al. [2014]). PI was added to cell homogenates after the luciferase test, at a final concentration of 50 µg/ml and incubated for 2 h. After incubation, fluorescence intensity was measured on a Flexstation 3 microplate reader (Excitation: 544 nm ± 15 nm; Emission: 620 nm ± 15 nm). Results are expressed as percentage of control. Propidium iodide (PI) measures total DNA content as an approximation of the cell number.

[6] = ESC-derived neurons, 48 h exposure
[7] = undifferentiated ESCs, 48 h exposure
[8] = undifferentiated ESCs, 48 h exposure, lowest tested concentration with statistically significant decrease

Molecule | LOAEL Neurons EF1α [1, 6] [µM] | LOAEL ESC EF1α [1, 7] [µM] | LOAEL ESC Tα1 [2, 8] [µM] | LOAEL Neurons Tα1 [3, 6] [µM] | Concentration in humans ([4]; ref Zimmer et al. ([2014])) | effect on general promoter activity in neurons [1] | other results
CC(C)NCC(O)COc1cccc2ccccc12 (stereo not shown) [Propranolol] | >50 | 50 | 50 | 50 | – | – | Concentration in humans ([4]; ref International Programme on Chemical Safety): 0.12–0.19^d µM
O=C(/C=C/c1cccc(S(=O)(=O)Nc2ccccc2)c1)NO [Belinostat] | 50 | 5 | 5 | 0.0005 | – | – | Concentration in humans ([4]; ref Wei et al. ([2014])): 0.36^f µM; effect on promoter activities in undifferentiated cells [5]: enhanced the activities of neuronal and/or general promoters
C[CH2][Hg][S]c1ccccc1C(=O)[O-].[Na+] [Thimerosal] | – | – | – | – | – | – | LOAEL ESC EF1α [1]: 0.5 µM; LOAEL Neurons EF1α [1]: 0.5 µM; LOAEL ESC Tα1 [2]: 0.5 µM; LOAEL Neurons Tα1 [3]: 0.5 µM; increase in blood mercury levels after vaccination ([4]; conversion of <5 ng/ml, ref Pichichero et al. [2008]): ~25 nM; Concentration in humans (increase in blood mercury levels after vaccination) [4]: Max 5 ng/ml^j; Concentration in humans (increase in blood mercury levels after vaccination) ([4]; listed as thimerosal): < 5 ng/mL
COC(=O)c1ccc2c(c1)NC(=O)/C2=C(\Nc1ccc(N(C)C(=O)CN2CCN(C)CC2)cc1)c1ccccc1 [Nintedanib] | 5 | 5 | 0.5 | 0.05 | 0.074^k µM | – | –
Nc1ccccc1NC(=O)c1ccc(CNC(=O)OCc2cccnc2)cc1 [Entinostat] | >50 | 5 | 50 | 0.5 | – | enhanced | effect on promoter activities in undifferentiated cells [5]: enhanced the activities of neuronal and/or general promoters
Oxytocin | >0.1 | >0.1 | >0.1 | >0.1 | 0.002^k µM | – | –
COc1ccc2[nH]c([S+]([O-])Cc3ncc(C)c(OC)c3C)nc2c1 (stereo not shown) [Omeprazole] | >50 | >50 | >50 | >50 | – | – | Concentration in humans ([4]; ref Linden et al. ([2007])): 0.8^b µM
COCC(=O)O [Methoxyacetic acid] | >50 | >50 | >50 | 50 | – | – | effect on neural promoter activity in ESCs [2]: increase; inhibition at 50 µM ([3]; Mus musculus, Neuron, read-out: inhibition of neuronal promoter activity): ~40%; Concentration in humans (human exposure concentration) ([4]; human exposure concentration, ref Zimmer et al. ([2014])): 60^k (human exposure concentration) µM
Erythropoietin: EpoR agonist controlling erythropoiesis and neurogenesis; Peptide/Protein | >0.238 | >0.238 | >0.238 | >0.238 | 0.0003^k µM | selectively increased | –
G-CSF: Hormone stimulating granulopoiesis; Peptide/Protein (protein, UniProt P09919 31-207, looked up) Granulocyte …: TPLGPASSLPQSFLLKCLEQVRKIQGDGAALQEKLVSECATYKLCHPEELVLLGHSLGIPWAPLSSCPSQALQLAGCLSQLHSGLFLYQGLLQALEGISPELGPTLDTLQLDVADFATTIWQQMEELGMAPALQPTQGAMPAFASAFQRRAGGVLVASHLQSFLEVSYRVLRHLAQP | >0.00266 | >0.00266 | >0.00266 | >0.00266 | 1.3*10^−6k µM | selectively increased | –
